Where a SMILES comes first, the peptide text is derived from it.
Legend:
[1] = system: peripheral blood mononuclear cells; assay: Phagocytosis of opsonized microspheres by peptide-treated PBMCs (second experiment); type: cell-based, human; details: 50 nM peptide construct; interferon-gamma 100 ng/mL
Method: In a second experiment, streptavidin-coated microspheres, dyed with Dragon Green (0.97 μm diameter, Bangs Laboratories, Inc., Fishers, Ind.) were opsonized with rabbit anti-streptavidin serum (Sigma-Aldrich) and washed with phosphate buffered saline, pH 7.4 (PBS). Human PBMCs were cultured in microtiter plates in RPMI-1640 medium containing 10% fetal bovine serum (FBS) and 1:100 dilution of penicillin-streptomycin solution (Mediatech, Inc., Herndon, Va.) Cultures were washed to remove non-adherent cells, and fresh medium containing FBS, antibiotics, and 50 nM peptide was added to adherent cells for an additional 20 to 24 h. Microspheres were added at approximately a 10:1 ratio to total cells, and after an additional 30 to 60 min of incubation, a solution containing 2% formalin was added. […]
FIGS. 9A-I illustrate phagocytosis of opsonized microspheres by peptide-treated PBMCs. […] The experiment was quantified by counting the number of beads in the phagocytic cells (TABLE 2).
In order to establish that the bead-like material within the cells was indeed engulfed beads, fluorescence was examined. […] Cells were examined by both phase contrast microscopy (left panels) and fluorescence microscopy with blue excitation light (right panels). […]

[2] = system: HIV-1 clade B (Strain SF162) and clade C (Strain 97ZA009); assay: Inhibition of HIV replication (neutralization) in PBMCs, p24 immunoassay; type: cell-based; details: 10 nM, FIGS. 13A-B
Method: The ability of the peptides to inhibit replication of HIV, both alone and in combination with antibodies, was tested as follows. Approximately 3 million cells of frozen human PBMCs, obtained from the California Blood Bank system, were thawed at 37° C. and transferred to a 50 mL conical tube where 8 mL of wash medium were added slowly. Then an additional 8 mL of wash medium were added and swirled to mix. The cells were then centrifuged at 330 g for 10 min, the supernatant was removed and the pellet was resuspended in 10 mL wash medium and centrifuged as above. The washed cells were then resuspended in RPMI-B medium containing 10% FBS, phytohemagglutin was added to 5 μg/mL, and cells were incubated at 37° C. for 24 hr in humidified 5% CO2. Cells were washed, suspended to about 6 million cells per mL, and 50 μL, (about 250,000 viable cells) were added to each test well. Then 100 ↑L of the test peptide were added at a concentration sufficient to provide the desired final concentration, followed by 100 μL of virus suspension (100 median tissue culture infective doses (TCID50s)). The assay plate was incubated 3 days at 37° C., then washed 3 times to remove unbound virus, and the cells were again suspended to 250 μL of medium. After an additional 24 hr of incubation, cells were lysed with Triton X-100 and each sample was assayed by an enzyme-linked immunoassay for virus protein p24 to quantify neutralization of virus. In another set of samples, antibody preparations were also added at a desired concentration (i.e., in addition to peptide).
This peptide construct was assayed for activity with two strains of HIV, clade B (Strain SF162) and clade C (Strain 97ZA009), both of which were provided by the California Department of Public Health (Richmond, Calif.). HIV-1 clade B is the major strain in North America and HIV-1 clade C is the major strain in central and southern Africa, India and China. The peptide was assayed either alone (−) or in combination with serum from HIV-infected individuals (+), as outlined below in TABLE 3.
(SEQ ID NO:7). The short bars represent neutralization by peptide alone. The long bars represent neutralization when pooled serum from HIV-positive patients was added along with the peptide. The bars represent averages from two experiments, each performed in quadruplicate. In one set of experiments, each peptide was assayed at 10 nM for the ability to inhibit replication. In the absence of peptide, the antibody preparation (serum) provided only about 30% neutralization (inhibition), at the same dilution (data not shown).

[3] = system: macrophages in PBMC cultures; assay: Phagocytosis of microspheres opsonized with anti-HIV antibodies; type: cell-based, human
Method: The ability of the peptide constructs to stimulate phagocytosis was assessed in two experiments. In the first experiment, a biotin-tagged peptide epitope of a surface protein of HIV-1 was bound to streptvidin on the surface of the beads. An antibody preparation that was raised against this epitope was then bound to the HIV peptide. The beads were then washed and presented to peripheral blood mononuclear cell (PBMC) cultures pretreated with peptides. […] In multiple control cultures, the number of beads within a macrophage-like cell ranged from 0 to 3. […] In the treated cultures, greater than 20 beads were counted in each phagocytic cell. After several subsequent and similar experiments were conducted, a phagocytic index was developed for the activity of macrophages to ingest microspheres opsonized with anti-HIV antibodies (TABLE 1).

PBMCs = assay: Induction of cytokine release from PBMCs (membrane antibody array); type: cell-based, human; details: PBMC medium, 4 hr, 100 nM peptide; for Relative concentration of IL-21: IFN-γ printed in place of LPS
Method: To determine whether inhibition of HIV replication by the peptide may be the result of induction of release of cytokines, cultured PBMCs were treated with one peptide embodiment of the present invention and, after 4 hr incubation, the medium was collected and assayed for changes in the amounts of 40 different cytokines. […] Approximately 3 million cells of frozen human PBMCs were thawed at 37° C. and transferred to a 50 mL conical tube where 8 mL of wash medium were added slowly. Then an additional 8 mL of wash medium were added and swirled to mix. The cells were then centrifuged at 330 g for 10 min, the supernatant was removed and the pellet was resuspended in 10 mL wash medium and centrifuged as above. The washed cells were then resuspended in RPMI-1640 medium containing 10% FBS to about 6 million cells per mL and 100 μL of the suspension were added into each well of a 96-well microtiter plate and incubated overnight at 37° C. in humidified 5% CO2. After 24 hr the medium was replaced with 200 μL fresh RPMI-1640 medium containing 10% FBS and incubated at 37° C. in humidified 5% CO2 for 2 days. For the data shown in TABLE 4, the peptide aliquot was then added to samples in duplicate at a final concentration of 100 nM and incubated at 37° C. in humidified 5% CO2 for 4 hr. For other experiments (data not included), the incubation was continued for 24 hr. The medium was then removed and stored at −80° C. The samples were analyzed for production of cytokines One set of control cells was not treated with an experimental agent.
Culture medium was removed for assay of cytokine levels with methods developed by RayBiotech, Inc. (Norcross, Ga.). In this technology, membrane arrays of antibodies against cytokines were incubated with samples of media. After washing, the array was incubated with a cocktail of all antibodies tagged with biotin. The membrane was then washed free of unbound antibodies and incubated with streptavidin labeled with a fluorescent dye. After a final wash, the membrane arrays were read in a fluorescence detector.

[4] = system: lectins (HP, GS, WGA, DB, UEA1, SNA1, MAA, concanavalin A); assay: Lectin binding, panel of lectins (valency and specificity); details: seven lectins, equal number of HPSLK sequences per well, FIG. 4
From the text: Each assay used the same basic procedure.
FIG. 6 illustrates the specificity with which the quadravalent peptide constructs bind to different lectins.

PBMC cultures = details: 72 hr, 1 mM, FIG. 15
Method: The ability of peptides to reduce viability of cells in PBMC cultures was assayed by adding a range of concentrations and testing viability by dye uptake. PBMC cultures were incubated with the peptides for 72 hr each at the increasing concentrations of 1 nM, 1 μM and 1 mM. Ability of cells to exclude a dye was an indication of viability as viable cells express green fluorescence and non-viable cells express orange fluorescence.

Molecule	Beads/cell (mean ± SD) [1]	inhibitory activity when assayed alone [2]	level of inhibition with antibodies added [2]	Phagocytosis Index [3]	Relative concentration of IL-12p40 (PBMCs)	Relative concentration of IL-15 (PBMCs)	Relative concentration of IL-16 (PBMCs)	Relative concentration of IL-17 (PBMCs)	Relative concentration of sTNF RII (PBMCs)	Relative concentration of IL-21 (PBMCs)	other results
VSNQH: peptide construct containing four copies of an inactive core sequence VSNQH, negative control (VNSQH) [reference compound]	1.3 ± 1.8										
VGGGS: peptide construct containing four copies of the core sequence VGGGS		substantial inhibitory activity	enhanced by adding antibodies	+++ (+++ = 15)	51 arbitrary units	130 arbitrary units	10 arbitrary units	24 arbitrary units	26 arbitrary units		Relative concentration of ICAM-1 (PBMCs): 89 arbitrary units; Relative concentration of IL-1α (PBMCs): 291 arbitrary units; Relative concentration of IL-2 (PBMCs): 125 arbitrary units; Relative concentration of IP-10 (PBMCs): 321 arbitrary units; Relative concentration of RANTES (PBMCs): 213 arbitrary units; Relative concentration of TIMP-2 (PBMCs): 205 arbitrary units; Relative concentration of TNF-β (PBMCs): 111 arbitrary units
single sequence: peptide with 1 arm containing the core sequence HPSLK											binding relative to the quadravalent peptide (set as 100%) [4]: much lesser extent
PSSNA: peptide construct containing four copies of the core sequence PSSNA		substantial inhibitory activity	enhanced by adding antibodies	+++ (+++ = 15)	28 arbitrary units	153 arbitrary units	12 arbitrary units	21 arbitrary units	21 arbitrary units	130 arbitrary units	Relative concentration of IL-4 (PBMCs): 60 arbitrary units; Relative concentration of IL-8 (PBMCs): 702 arbitrary units; Relative concentration of IL-12p70 (PBMCs): 69 arbitrary units; Relative concentration of TNF-α (PBMCs): 123 arbitrary units
CC(C)C[C@H](NC(=O)[C@H](CO)NC(=O)[C@@H]1CCCN1C(=O)[C@@H](N)Cc1c[nH]cn1)C(=O)N[C@@H](CCCCN)C(=O)NCC(=O)NCC(=O)NCC(=O)N[C@@H](CO)C(=O)NCCCC[C@H](NC(=O)[C@H](CO)NC(=O)CNC(=O)CNC(=O)CNC(=O)[C@H](CCCCN)NC(=O)[C@H](CC(C)C)NC(=O)[C@H](CO)NC(=O)[C@@H]1CCCN1C(=O)[C@@H](N)Cc1c[nH]cn1)C(=O)NCCCC[C@H](NC(=O)[C@H](CCCCNC(=O)[C@H](CO)NC(=O)CNC(=O)CNC(=O)CNC(=O)[C@H](CCCCN)NC(=O)[C@H](CC(C)C)NC(=O)[C@H](CO)NC(=O)[C@@H]1CCCN1C(=O)[C@@H](N)Cc1c[nH]cn1)NC(=O)[C@H](CO)NC(=O)CNC(=O)CNC(=O)CNC(=O)[C@H](CCCCN)NC(=O)[C@H](CC(C)C)NC(=O)[C@H](CO)NC(=O)[C@@H]1CCCN1C(=O)[C@@H](N)Cc1c[nH]cn1)C(N)=O [HPSLK] (HELM PEPTIDE1{H.P.S.L.K.G.G.G.S.K.K.[am]}|PEPTIDE2{H.P.S.L.K.G.G.G.S.K}|PEPTIDE3{H.P.S.L.K.G.G.G.S}|PEPTIDE4{H.P.S.L.K.G.G.G.S}$PEPTIDE1,PEPTIDE4,10:R3-9:R2|PEPTIDE1,PEPTIDE2,11:R3-10:R2|PEPTIDE2,PEPTIDE3,10:R3-9:R2$$$V2.0)											viability of cells in PBMC cultures (PBMC cultures): partially reduced viability
Interferon-gamma: interferon-gamma, positive control (protein, UniProt P01579 24-161, looked up) Interferon gamma: QDPYVKEAENLKKYFNAGHSDVADNGTLFLGILKNWKEESDRKIMQSQIVSFYFKLFKNFKDDQSIQKSVETIKEDMNVKFFNSNKKKRDDFEKLTNYSVTDLNVQRKAIHELIQVMAELSPAAKTGKRKRSQMLFRG	35.8 ± 12.6			+++ (+++ = 15)						(IFN-γ: 100) arbitrary units	
